# Data as given in ChEMBL document CHEMBL1201862, “PubChem BioAssay data set” (2004).
#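 96-well plates; 48 h exposure; 5 concentrations. Endpoints by linear interpolation between flanking doses. Not reached: highest tested concentration assigned. GI50 = concentration required for 50% inhibition of growth.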 Active and inactive are the calls of the source. No stated cut-off is given here; in the data, active = GI50 up to about 1.1 µM and inactive = higher.
# Assays:
# Test in all cases: NCI anticancer screen, dose series, 48 h
# [1] = test system: 786-0
# [2] = test system: A549
# [3] = test system: COLO 205
# [4] = test system: HCT-15
# [5] = test system: LOX IMVI
# [6] = test system: MCF7
# [7] = test system: MOLT-4
# [8] = test system: NCI-H226
# [9] = test system: NCI-H460
# [10] = test system: OVCAR-4
# [11] = test system: PC-3
# [12] = test system: RPMI-8226
# [13] = test system: RXF 393
# [14] = test system: SF-268
# [15] = test system: SF-295
# [16] = test system: SN12C
# [17] = test system: SNB-19
# [18] = test system: UACC-62
# [19] = test system: UO-31
# [20] = test system: A498
Structure (SMILES),GI50 [1],GI50 [2],GI50 [3],GI50 [4],GI50 [5],GI50 [6],GI50 [7],GI50 [8],GI50 [9],GI50 [10],GI50 [11],GI50 [12],GI50 [13],GI50 [14],GI50 [15],GI50 [16],GI50 [17],GI50 [18],GI50 [19],GI50 [20]
CCOC(=O)/C=C(\C(=O)OCC)n1cc(C)c(=O)n(Cc2cn(COCCOC(C)=O)nn2)c1=O,5.46 µM (inactive),27.5 µM (inactive),2.86 µM (inactive),6.93 µM,15.9 µM (inactive),6.78 µM (inactive),3.79 µM (inactive),> 10 µM (inactive),10.2 µM (inactive),23.3 µM (inactive),20 µM (inactive),5.09 µM (inactive),11.6 µM (inactive),14.7 µM (inactive),19.5 µM (inactive),18.1 µM (inactive),19 µM (inactive),17.8 µM (inactive),14 µM (inactive),
Clc1cc2ncn(C3CCCCO3)c2cc1Cl (centres undefined),71.6 µM (inactive),47.8 µM (inactive),77.3 µM (inactive),63.2 µM,32.5 µM (inactive),74 µM (inactive),33.9 µM (inactive),17.5 µM (inactive),,48.9 µM (inactive),34.6 µM (inactive),66.8 µM (inactive),44.7 µM (inactive),34.6 µM (inactive),70.5 µM (inactive),99.1 µM (inactive),> 100 µM (inactive),53.5 µM (inactive),16.1 µM (inactive),
COc1ccc(N2C(=O)/C(=C\c3cc(OC)c(OC)c(OC)c3)SC2c2ccccc2)cc1 (centres undefined),> 100 µM (inactive),> 100 µM (inactive),62.5 µM (inactive),58.2 µM,29.6 µM (inactive),44.2 µM (inactive),> 100 µM (inactive),> 100 µM (inactive),67 µM (inactive),79.8 µM (inactive),,31.3 µM (inactive),42.1 µM (inactive),> 100 µM (inactive),50.5 µM (inactive),> 100 µM (inactive),> 100 µM (inactive),58.9 µM (inactive),46.7 µM (inactive),> 100 µM (inactive)
COC(=O)c1ccc(C(=O)NC(Cc2ccc(Oc3cc(CC(NC(=O)c4ccccc4C(=O)OC)C(=O)OC)ccc3OC)cc2)C(=O)OC)cc1 (centres undefined),> 100 µM (inactive),> 100 µM (inactive),> 100 µM (inactive),> 100 µM,> 100 µM (inactive),67.5 µM (inactive),> 100 µM (inactive),> 100 µM (inactive),> 100 µM (inactive),> 100 µM (inactive),> 100 µM (inactive),> 100 µM (inactive),,> 100 µM (inactive),43.9 µM (inactive),> 100 µM (inactive),31.6 µM (inactive),,> 100 µM (inactive),72.6 µM (inactive)
CC1(C)N=C(/C(C#N)=[N+](/[O-])C(=O)c2ccccc2)C(C)(C)N1O,> 100 µM (inactive),> 100 µM (inactive),> 100 µM (inactive),> 100 µM,> 100 µM (inactive),> 100 µM (inactive),> 100 µM (inactive),> 100 µM (inactive),> 100 µM (inactive),> 100 µM (inactive),> 100 µM (inactive),> 100 µM (inactive),> 100 µM (inactive),> 100 µM (inactive),> 100 µM (inactive),> 100 µM (inactive),> 100 µM (inactive),> 100 µM (inactive),> 100 µM (inactive),
CC(C)Nc1n[nH]c(=O)n1C(C)C,> 100 µM (inactive),> 100 µM (inactive),> 100 µM (inactive),> 100 µM,> 100 µM (inactive),> 100 µM (inactive),> 100 µM (inactive),81.5 µM (inactive),> 100 µM (inactive),,> 100 µM (inactive),> 100 µM (inactive),,> 100 µM (inactive),> 100 µM (inactive),> 100 µM (inactive),> 100 µM (inactive),> 100 µM (inactive),> 100 µM (inactive),> 100 µM (inactive)
S=C(NN=C1NCCCCN1)Nc1ccccc1,39 µM (inactive),34.8 µM (inactive),6.68 µM (inactive),37.4 µM,26.6 µM (inactive),31.2 µM (inactive),25.5 µM (inactive),> 100 µM (inactive),37.2 µM (inactive),,45.7 µM (inactive),9.93 µM (inactive),,87.3 µM (inactive),31.5 µM (inactive),> 100 µM (inactive),> 100 µM (inactive),> 100 µM (inactive),34 µM (inactive),> 100 µM (inactive)
CC(=O)OCC(=O)OC[C@H](OCc1ccccc1)[C@@H]1[C@H](OC(C)=O)C(=O)N1Cc1ccccc1,> 100 µM (inactive),> 100 µM (inactive),> 100 µM (inactive),> 100 µM,> 100 µM (inactive),> 100 µM (inactive),> 100 µM (inactive),> 100 µM (inactive),,> 100 µM (inactive),> 100 µM (inactive),> 100 µM (inactive),,> 100 µM (inactive),> 100 µM (inactive),> 100 µM (inactive),> 100 µM (inactive),> 100 µM (inactive),> 100 µM (inactive),> 100 µM (inactive)
CCN(CC)c1ccc2nc3ccc(/N=N/c4c(O)ccc5ccccc45)cc3[n+](-c3ccccc3)c2c1,> 100 µM (inactive),> 100 µM (inactive),> 100 µM (inactive),> 100 µM,,,> 100 µM (inactive),> 100 µM (inactive),,> 100 µM (inactive),> 100 µM (inactive),> 100 µM (inactive),> 100 µM (inactive),> 100 µM (inactive),> 100 µM (inactive),> 100 µM (inactive),> 100 µM (inactive),> 100 µM (inactive),> 100 µM (inactive),
CN(C)c1nc(Cl)c2c(-c3ccccc3)c(-c3ccccc3)oc2n1,72.8 µM (inactive),98.2 µM (inactive),> 100 µM (inactive),31.6 µM,33.3 µM (inactive),28.9 µM (inactive),32.2 µM (inactive),> 100 µM (inactive),,75.7 µM (inactive),,18.9 µM (inactive),19.4 µM (inactive),36 µM (inactive),58.1 µM (inactive),39.5 µM (inactive),> 100 µM (inactive),95.5 µM (inactive),> 100 µM (inactive),> 100 µM (inactive)
COc1cc([C@@H]2c3cc4c(cc3C[C@H]3COC(=O)[C@@H]32)OCO4)cc(OC)c1OC [DESOXYPODOPHYLLOTOXIN],0.00372 µM (active),0.00885 µM (active),,,,0.00875 µM (active),0.00893 µM (active),0.00733 µM (active),,,0.00353 µM (active),,,0.00843 µM (active),0.00632 µM (active),0.00995 µM (active),0.0092 µM (active),0.00912 µM (active),0.0986 µM (active),0.00695 µM (active)
